{"source": "patent US6342219B1", "about": "(Board of Regents, The University of Texas System, priority 1999, dated 2002)", "key": {"NCI-H358 NSCLC tumors": {"tested_on": "NCI-H358 NSCLC tumors", "assay": "Treatment of established NCI-H358 xenografts (FIG. 4)", "type": "in vivo, nu/nu mice", "conditions": "50-100 μg i.p. every 3-5 days, approximately 10 weeks", "method": "FIG. 4. […] Mean tumor volume along with the SEM over 116 days is shown.\nMale nu/nu mice bearing subcutaneous NCI-H358 tumors or HT1080 fibrosarcoma 200-400 mm^3 in size were injected i.p. with test or control antibodies. The NCI-H358 bearing mice were treated with 100 μg of antibodies per injection three times a week during the first week and twice a week during the second and third week. The mice were then switched to 50 μg per injection every five days. The HT1080 bearing mice were treated with 100 μg of the indicated antibody or saline every other day throughout the duration of the study. In both studies, mice were sacrificed when their tumors reached 2500 mm^3 in size or earlier if tumors began to ulcerate.\nDoses were 50-100 μg every 3-5 days. […] In addition to measuring mean tumor volume (FIG. 4), photographs of the mice from each treatment group were also taken to show the differences in tumor size and appearance at the end of the study."}, "[1]": {"tested_on": "guinea pig VEGF in line 10 guinea pig tumor sections", "assay": "Immunohistochemistry, endothelial cell staining, guinea pig Line 10 tumor", "type": "binding", "parameters": "key: −, negative; +/−, very weak; 1+, weak; 2+, moderate; 3+, strong; 4+, very strong", "conditions": "acetone fixed frozen sections", "method": "(§1) Guinea pig line 10 hepatocellular carcinoma tumor cells (obtained from Dr. Ronald Neuman, NIH, Bethesda, Md.) were grown in strain 2 guinea pigs (NCI, Bethesda, Md.). The human tumors NCI-H358 non-small cell lung carcinoma (NSCLC), NCI-H460 NSCLC (both obtained from Dr. Adi Gazdar, UT Southwestern, Dallas, Tex.), HT29 colon adenocarcinoma (American Type Culture Collection), and L540CY Hodgkin's lymphoma (obtained from Professor V. Diehl, Cologne, Germany) were grown as xenografts in CB17 SCID mice (Charles River, Wilmington, Mass.).\n(§2) Tumors were snap frozen in liquid nitrogen and stored at −70° C. Frozen samples of tumor specimens from patients were obtained from the National Cancer Institute Cooperative Human Tissue Network (Southern Division, Birmingham, Ala.). Immunohistochemistry was performed as described by Burrows et al. (1995)."}, "[2]": {"tested_on": "human tumor xenografts (NCI-H358, NCI-H460, HT29, L540)", "assay": "Immunohistochemistry, endothelial cell staining, human tumor xenografts", "type": "binding, human tumors grown in SCID mice", "parameters": "key: −, negative; +/−, very weak; 1+, weak; 2+, moderate; 3+, strong; 4+, very strong", "conditions": "acetone fixed frozen sections", "method": "as §1, §2"}, "[3]": {"tested_on": "denatured VEGF121 and VEGF165", "assay": "Western blot analysis", "type": "binding, human", "conditions": "reducing and non-reducing conditions", "method": "The nitrocellulose membrane was blocked using Sea-Block PP82-41 (East Coast Biologics, Berwick, Me.), and probed with primary antibodies using a mini-blotter apparatus (Immunetics, Cambridge, Mass.). The membranes were developed after incubation with the appropriate peroxidase-conjugated secondary antibody by ECL enhanced chemiluminescence.\nWestern blot analyses of anti-VEGF antibodies were conducted by separating VEGF165 in the presence of 5% FCS using SDS-PAGE on a 12% gel and analyzing by a standard western blotting protocol using ECL detection. The primary antibodies were incubated with the nitrocellulose membrane using a multi-lane mini-blotter apparatus."}, "KDR on ABAE cells": {"tested_on": "KDR on ABAE cells", "assay": "125I-VEGF binding studies on KDR expressing endothelial cells", "parameters": "species or system bovine"}, "VEGFR2 (sFlk-1)": {"tested_on": "VEGFR2 (sFlk-1)", "assay": "ELISA of VEGF binding to VEGFR2-coated wells", "parameters": "species or system mouse", "method": "(§3) FIG. 2. […] The plate was then incubated with rabbit anti-VEGF (A-20, Santa Cruz Biotechnology, Inc.) at 1 μg/ml and developed using a peroxidase conjugated goat anti-rabbit antibody. Assays were performed in triplicate. Mean percent binding in the absence of antibody is shown, together with the standard deviation.\n(§4) The assay was also performed by coating wells of a microtiter plate with either control or test IgG."}, "[4]": {"tested_on": "human tumors from cancer patients", "assay": "Immunohistochemistry, endothelial cell staining, human tumors", "type": "binding", "parameters": "key: −, negative; +/−, very weak; 1+, weak; 2+, moderate; 3+, strong; 4+, very strong", "conditions": "acetone fixed frozen sections", "method": "as §2"}, "[5]": {"tested_on": "LS174T colon adenocarcinoma", "assay": "Treatment of established LS174T tumors", "parameters": "species or system mice", "conditions": "mouse, in vivo"}, "A673 rhabdomyosarcoma": {"tested_on": "A673 rhabdomyosarcoma", "assay": "Treatment of established A673 tumors", "parameters": "species or system mice", "conditions": "mouse, in vivo"}, "VEGFR1 (Flt-1/Fc)": {"tested_on": "VEGFR1 (Flt-1/Fc)", "assay": "ELISA of VEGF binding to VEGFR1-coated wells", "method": "as §3, §4"}, "[6]": {"tested_on": "tumor sections (endothelium, connective tissue, tumor cell)", "assay": "Immunohistochemistry on frozen tumor sections (reactivity pattern)", "type": "binding", "parameters": "key: EC = endothelium; CT = connective tissue; TC = tumor cell; NR = no reaction", "conditions": "acetone fixed frozen sections; 2C3 and 12D7 at 20 μg/ml, others 5-10 μg/ml", "method": "as §1\nas §2, with “(1995). […]” for “(1995).”\nThe immunohistochemical reactivity of 3E7, GV39M, and 11B5 on NCI-H358 human NSCLC xenografts was determined and compared with control antibodies (an IgG of irrelevant specificity; A-20, a rabbit anti-VEGF antibody; and MECA 32, a rat anti-mouse endothelial cell antibody). […]"}, "VEGF": {"target": "T1, VEGF (Homo sapiens, UniProt P15692)", "T1 sequence (P15692 27-191 isoform P15692-4)": "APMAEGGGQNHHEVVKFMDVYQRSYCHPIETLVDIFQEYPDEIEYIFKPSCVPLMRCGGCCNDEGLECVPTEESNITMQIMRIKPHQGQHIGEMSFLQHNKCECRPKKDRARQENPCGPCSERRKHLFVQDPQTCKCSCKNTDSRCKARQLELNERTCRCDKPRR", "assay": "Competition ELISA (epitope groups)", "type": "binding", "method": "Competition ELISA studies were performed by first labeling the antibodies with peroxidase according to the manufacturer's instructions (EZ-Link Activated Peroxidase, Pierce). […] Approximately 0.5-2.0 μg/ml of peroxidase labeled test antibody was incubated on the plate in the presence of either buffer alone, an irrelevant IgG, or the other anti-VEGF competing antibodies in a 10-100 fold excess.\nThe assay was done in triplicate at least twice for each combination of labeled and competitor antibody. Two antibodies were considered to be in the same epitope group if they cross-blocked each other's binding by greater than 80%."}, "[7]": {"tested_on": "mouse VEGF in mouse 3LL Lewis Lung carcinoma tumor sections", "assay": "Immunohistochemistry, endothelial cell staining, mouse 3LL tumor", "type": "binding", "parameters": "key: −, negative; +/−, very weak; 1+, weak; 2+, moderate; 3+, strong; 4+, very strong", "conditions": "acetone fixed frozen sections", "method": "as §2\nTumors examined through immunohistochemistry were human tumors of various types from cancer patients, transplantable human tumor xenografts of various types grown in mice, guinea pig Line 10 tumor grown in guinea pig, and mouse 3LL tumor grown in mice (see legend to Table 3 for details)."}}, "data": [{"substance": "2C3: anti-VEGF monoclonal antibody, IgG2a, k, produced by hybridoma ATCC PTA 1595; blocks VEGF binding to VEGFR2 but not VEGFR1 [Clone 2C3]", "values": [{"measurement": "Mean tumor volume at the end of the study, of the initial mean tumor volume", "setting": "NCI-H358 NSCLC tumors", "value": 30, "unit": "%"}, {"measurement": "Endothelial Cell Staining, Guinea Pig Tumor (Line 10)", "setting": "[1]", "value": "−"}, {"measurement": "Endothelial Cell Staining, Xenograft (various)", "setting": "[2]", "value": "−"}, {"measurement": "Reactivity with denatured VEGF on western blots", "setting": "[3]", "value": "react"}, {"measurement": "Blocking of 125I-VEGF binding to KDR", "setting": "KDR on ABAE cells", "value": "blocks VEGF from binding to KDR in a concentration dependent manner"}, {"measurement": "Blocks VEGF from binding to VEGFR2", "setting": "VEGFR2 (sFlk-1)", "value": "Yes"}, {"measurement": "Effect on VEGF binding to VEGFR2 in ELISA", "setting": "VEGFR2 (sFlk-1); 100-1000 fold excess", "value": "blocked"}, {"measurement": "Reduction in VEGF binding to VEGFR2", "setting": "VEGFR2 (sFlk-1); 100 fold molar excess over VEGF", "value": "about 74%"}, {"measurement": "VEGF bound to VEGFR2-coated wells, of the amount bound in the absence of antibody", "setting": "VEGFR2 (sFlk-1); 1000-fold molar excess over VEGF (1 nM VEGF)", "value": "~19", "unit": "%"}, {"measurement": "Reduction in VEGF binding to VEGFR2", "setting": "VEGFR2 (sFlk-1); 1000 fold molar excess over VEGF", "value": "about 81%"}, {"measurement": "Endothelial Cell Staining, Hu Tumor (various)", "setting": "[4]", "value": "−"}, {"measurement": "Effect on growth of established LS174T tumors", "setting": "[5]", "value": "significantly slowed the growth"}, {"measurement": "Effect on growth of established A673 tumors", "setting": "A673 rhabdomyosarcoma", "value": "significantly slowed the growth"}, {"measurement": "Blocks VEGF from binding to VEGFR1", "setting": "VEGFR1 (Flt-1/Fc)", "value": "No"}, {"measurement": "Reactivity (immunohistochemical pattern on tumor sections)", "setting": "[6]", "value": "NR"}, {"measurement": "Cross-reactivity of 2C3 and A4.6.1 in competition studies", "setting": "VEGF", "value": "not cross-reactive"}, {"measurement": "Epitope Group", "setting": "VEGF; determined through competitive ELISA", "value": 4}, {"measurement": "Endothelial Cell Staining, Mouse Tumor (3LL)", "setting": "[7]", "value": "−"}]}]}
